This is an account of results in patent publication US20140314780A1, “Compositions Using Antibodies Directed to GPNMB and Uses Thereof” (Celldex Therapeutics, Inc., priority 2008, published 2014).

Assay [1] relates to MART-1, TYRP-2, TYRP-1, PMEL17, MAGEA1, MCSP, MTf, MCAM. The conditions noted are these: melanoma cell lines, U0126 20 μM, 48 hours (FIG. 5). On the procedure:
Cells were seeded in 6-well tissue culture dishes at a subconfluent density and allowed to attach overnight. For harvesting cell lysates, media was removed, cells were briefly washed with serum-free media and then 1× Tris-glycine SDS sample buffer (Invitrogen, Carlsbad, Calif.) supplemented with 10 mM dithiothreitol (Sigma) was added directly to the wells. Cell lysates were then collected and boiled for 10 minutes. For preparing conditioned media, drug treatments were performed in a minimum volume of growth media (1.5 mL/well). Following 48 hours of incubation, conditioned media was collected, briefly microfuged, mixed with an equal volume of 2× Tris-glycine SDS sample buffer (Invitrogen, Carlsbad, Calif.) supplemented with 20 mM dithiothreitol (Sigma) and boiled for 10 minutes. For cell lysates, samples were quantified and an equal quantity of protein/lane was resolved on 4-20% gradient polyacrylamide gels (Invitrogen) and then transferred to nitrocellulose filters (Invitrogen). The volume of conditioned media loaded/lane was adjusted based on the protein concentration determined in the respective cell lysates. […]

In assay [2] the test system is GPNMB surface expression on A375 melanoma cells. In words: Flow cytometry of GPNMB surface expression, A375 cells. The note with it: for GPNMB surface expression, flow cytometry GeoMean: A375, CR011 (anti-GPNMB) primary antibody. The format is cell-based, human. On the procedure: Cells were seeded in 6-well tissue culture dishes at a subconfluent density and allowed to attach overnight. The following day, cells were treated as indicated in the figures/legends, harvested with versene (Invitrogen), washed with PBS and incubated with primary antibody (10 μg/mL) diluted in staining buffer (PBS pH 7.4, 4% FBS, 0.1% sodium azide) for 30 minutes on ice. […] After incubation with primary antibody, samples were washed with staining buffer and then incubated with secondary antibody (PE-conjugated anti-human antibody; 1:100) for 30 minutes on ice. After incubation, samples were washed with staining buffer and examined on a Becton Dickinson FACSCalibur flow cytometer (BD Immunocytometry Systems, San Jose, Calif.). Data analysis was performed with Becton Dickinson Cell Quest software and the geometric mean fluorescence intensity (GeoMean) was determined for each sample.
For the data shown in Table 37, flow cytometry was performed on intact, non-permeabilized cells using the indicated primary monoclonal antibodies. […] The results are reported as GeoMeans. […] For the data shown in the bottom left panel of Table 37, SKMEL2 (melanoma) cells were treated with MEKi (U0126; 10 uM), imatinib (20 uM), p38i (p38 MAPKi SB202190; 50 uM), NH4Cl (ammonium chloride; 20 mM) or CLQ (chloroquine; 20 uM) for 48 hours prior to analysis. For the data shown in the bottom right panel of Table 37, WM2664 (melanoma) cells were treated with MON (monensin) or MMPi (GM6001) for 48 hours prior to analysis.

On to `N#CC(=C(/N)Sc1ccccc1N)/C(C#N)=C(\N)Sc1ccccc1N` [Mab U0126], for which the “expression of MART-1, TYRP-2, TYRP-1, PMEL17” value in assay [1] is reported as “induced by MEK inhibition in some cell lines”. For the same molecule, the “expression of other targets (MAGEA1, MCSP)” value in assay [1] is “either were not effected or even decreased”. In addition, the “GPNMB surface expression, flow cytometry GeoMean” value in assay [2] (MEKi (U0126) 5 um, 12 h) was determined as 14.7; in assay [2] (MEKi (U0126) 5 um, 24 h), 16.4; in assay [2] (MEKi (U0126) 5 um, 48 h), 52.4; in assay [2] (MEKi (U0126) 20 um, 12 h), 18.3; in assay [2] (MEKi (U0126) 20 um, 24 h), 22.4; in assay [2] (MEKi (U0126) 20 um, 48 h), 84.0. The GPNMB surface expression entry in assay [2] (A375 melanoma, 12, 24 or 48 hours (Table 37, top)) was “induced GPNMB surface expression”.
